# Target: Human recombinant PDE4 (Genbank accession no NM—006203) (Homo sapiens, UniProt Q08499)
# Assay: PDE4 assay (SPA, cleavage of cAMP)
# Assay type: biochemical
# Conditions: 1 hour incubation, test compound up to 10 μM, cAMP 1×10^−5M, read-out: PDE4 IC50 range
# Method in brief: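 Human recombinant PDE4 incubated 1 hour with compound (up to 10 μM), 1×10^−5M cAMP and radiolabelled cAMP tracer. AMP product detected by SPA bead binding; IC50 taken as concentration giving 50% inhibition of substrate cleavage versus controls, reported as ranges.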
# Sequence of Human recombinant PDE4 (Genbank accession no NM—006203) (Q08499 1-673 isoform Q08499-2): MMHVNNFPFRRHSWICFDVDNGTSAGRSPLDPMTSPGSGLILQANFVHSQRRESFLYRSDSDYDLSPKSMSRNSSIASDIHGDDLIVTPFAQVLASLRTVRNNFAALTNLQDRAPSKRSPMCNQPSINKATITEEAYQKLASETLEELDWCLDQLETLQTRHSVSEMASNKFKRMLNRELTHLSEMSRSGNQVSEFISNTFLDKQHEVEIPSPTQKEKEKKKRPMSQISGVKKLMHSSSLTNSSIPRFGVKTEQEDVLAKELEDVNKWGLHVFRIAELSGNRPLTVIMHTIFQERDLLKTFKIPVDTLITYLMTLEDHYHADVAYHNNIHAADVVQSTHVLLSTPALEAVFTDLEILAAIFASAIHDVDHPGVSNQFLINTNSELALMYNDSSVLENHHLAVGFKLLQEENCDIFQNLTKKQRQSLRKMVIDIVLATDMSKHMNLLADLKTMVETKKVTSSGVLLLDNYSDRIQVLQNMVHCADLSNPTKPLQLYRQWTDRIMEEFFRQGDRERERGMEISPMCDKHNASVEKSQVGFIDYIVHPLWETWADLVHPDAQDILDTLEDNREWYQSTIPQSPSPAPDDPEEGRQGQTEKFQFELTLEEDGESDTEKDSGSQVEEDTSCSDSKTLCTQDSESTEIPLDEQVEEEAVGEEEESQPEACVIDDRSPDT
row,SMILES,IC50
1,"COc1ccc(-c2cccc3c2CCC3=O)c(OCC(C)(C)C(=O)N2CCOCC2)c1OC [Compound 204, 4-[2-(2,2-Dimethyl-3-morpholin-4-yl-3-oxo-propoxy)-3,4-dimethoxy-phenyl]-indan-1-one]",< 0.1 µM
2,"CNC(=O)C(C)(C)COc1c(-c2ccc3c(c2)CCC3=O)ccc(OC)c1OC [Compound 206, 3-[2,3-Dimethoxy-6-(1-oxo-indan-5-yl)-phenoxy]-2,2,N-trimethyl-propionamide]",< 0.1 µM
3,"COc1ccc(-c2ccc3c(c2)CCC3=O)c(OCC(C)(C)C(=O)N(C)C)c1OC [Compound 207, 3-[2,3-Dimethoxy-6-(1-oxo-indan-5-yl)-phenoxy]-2,2,N,N-tetramethyl-propionamide]",0.1 to 0.5 µM
4,"COc1ccc(-c2ccc3c(c2)CCC3=O)c(OCC(C)(C)C(=O)NC(C)C)c1OC [Compound 208, 3-[2,3-Dimethoxy-6-(1-oxo-indan-5-yl)-phenoxy]-N-isopropyl-2,2-dimethyl-propionamide]",≥ 0.5 µM
5,"CCCNC(=O)C(C)(C)COc1c(-c2ccc3c(c2)CCC3=O)ccc(OC)c1OC [Compound 209, 3-[2,3-Dimethoxy-6-(1-oxo-indan-5-yl)-phenoxy]-2,2-dimethyl-N-propyl-propionamide]",0.1 to 0.5 µM
6,"CCNC(=O)OCC(C)(C)COc1c(-c2ccc3c(c2)COC3=O)ccc(OC)c1OC [Compound 210, Ethyl-carbamic acid 3-[2,3-dimethoxy-6-(1-oxo-1,3-dihydro-isobenzofuran-5-yl)-phenoxy]-2,2-dimethyl-propyl Ester]",< 0.1 µM
7,"CCNC(=O)OCC(C)(C)COc1c(-c2cccc3c2CCC3=O)ccc(OC)c1OC [Compound 211, Ethyl-carbamic acid 3-[2,3-dimethoxy-6-(1-oxo-indan-4-yl)-phenoxy]-2,2-dimethyl-propyl ester]",< 0.1 µM
8,"CCNC(=O)OCC(C)(C)COc1c(-c2ccc3c(c2)CNC3=O)ccc(OC)c1OC [Compound 212, Ethyl-carbamic acid 3-[2,3-dimethoxy-6-(1-oxo-2,3-dihydro-1H-isoindol-5-yl)-phenoxy]-2,2-dimethyl-propyl ester]",≥ 0.5 µM
9,"CCNC(=O)OCC1(COc2c(-c3ccc4c(c3)COC4=O)ccc(OC)c2OC)COC1 [Compound 213, Ethyl-carbamic acid 3-[2,3-dimethoxy-6-(1-oxo-1,3-dihydro-isobenzofuran-5-yl)-phenoxymethyl]-oxetan-3-ylmethyl ester]",< 0.1 µM
10,"CCNC(=O)OCC1(COc2c(-c3ccc4c(c3)CNC4=O)ccc(OC)c2OC)COC1 [Compound 214, Ethyl-carbamic acid 3-[2,3-dimethoxy-6-(1-oxo-2,3-dihydro-1H-isoindol-5-yl)-phenoxymethyl]-oxetan-3-ylmethyl ester]",≥ 0.5 µM
11,"COCC1(COc2c(-c3ccc4c(c3)COC4=O)ccc(OC)c2OC)COC1 [Compound 215, 5-[3,4-Dimethoxy-2-(3-methoxymethyl-oxetan-3-ylmethoxy)-phenyl]-3H-isobenzofuran-1-one]",< 0.1 µM
12,"COCC1(COc2c(-c3ccc4c(c3)CNC4=O)ccc(OC)c2OC)COC1 [Compound 216, 5-[3,4-Dimethoxy-2-(3-methoxymethyl-oxetan-3-ylmethoxy)-phenyl]-2,3-dihydro-isoindol-1-one]",< 0.1 µM
13,"COCC(C)(C)COc1c(-c2cccc3c2CCC3=O)ccc(OC)c1OC [Compound 217, 4-[3,4-Dimethoxy-2-(3-methoxy-2,2-dimethyl-propoxy)-phenyl]-indan-1-one]",< 0.1 µM
14,"COCC(C)(C)COc1c(-c2ccc3c(c2)COC3=O)ccc(OC)c1OC [Compound 218, 5-[3,4-Dimethoxy-2-(3-methoxy-2,2-dimethyl-propoxy)-phenyl]-3H-isobenzofuran-1-one]",< 0.1 µM
15,"COCC(C)(C)COc1c(-c2ccc3c(c2)CNC3=O)ccc(OC)c1OC [Compound 219, 5-[3,4-Dimethoxy-2-(3-methoxy-2,2-dimethyl-propoxy)-phenyl]-2,3-dihydro-isoindol-1-one]",< 0.1 µM
